One series relates to L1210 cells. As to the kind of experiment: Nanomoles of triphosphate per gm L1210 cells after treatment (Table I). Particulars: for levels of F-ara-A triphosphate in leukemic cells versus F-ara-A itself: mouse, in vivo. It is filed as in vivo, mice. The procedure:
(§1) These higher levels of the active agent that last for longer periods of time allow effective treatment with these drugs given once a day for nine days (see FIGS. 1, 2 and 3).
(§2) It has been noted that the antitumor activity of 9-β-D-arabinofuranosyl adenine (ara-A) is enhanced by the incorporation of a fluorine atom at the 2-carbon. […] To overcome this difficulty two water-soluble derivatives, the 5'-formate and the 5'-phosphate, were prepared.

The nature of series [1]: Water solubility (statement). It counts as physicochemical. Particulars: in words.
A further series concerns L1210/0 Leukemia. As to the kind of experiment: Activity against L1210/0 leukemia, 10^5 IP (Tables II and III). It is filed as in vivo, mice. The procedure:
as §1
Treatment: IP; QD 1-9 Days*
*2'dCF Given 30 Minutes Before araA
as §2

Another series has as its system L1210 Leukemia. As to the kind of experiment: Activity against L1210 leukemia, 10^5 L1210 cell IP (Table IV). It counts as in vivo, mice. Particulars: for lifespan and cures of mice implanted with leukemia L1210 cells: FIGS. 1 and 3; for Lifespan: untreated control 8. The procedure: as §1, §2
The nature of series [2]: Conversion to the parent drug in vivo (statement). Conditions: in words.
The conditions of series [3]: in words; second component of the two-drug combination; cited from earlier work.
Setting [4] is: Table II, 150 mg/kg/dose, IP, QD 1-9 days.
Setting [5] is: mice implanted with leukemia L1210 cells.
Setting [6] is: Table IV, 219 mg/kg/day, qd 1-9.
The mark [7] stands for this setting: Table IV, 375 mg/kg/day, q3h, days 1,5,9.

With `Nc1nc(F)nc2c1ncn2[C@@H]1O[C@H](CO)[C@@H](O)[C@@H]1O` [F-ara-A, 9-β-D-arabinofuranosyl-2-fluoroadenine, reference compound], the “levels of the triphosphate in L1210 versus ara-A+2'dCF” value in the series on L1210 cells (near equimolar doses) is given as “higher levels”. Further, the solubility entry in series [1] is “very insoluble”.

Turning to `Nc1nc(F)nc2c1ncn2[C@@H]1O[C@H](COC=O)[C@@H](O)[C@@H]1O` [F-ara-A5'-formate, 9-(5-O-formyl-β-D-arabinofuranosyl)-2-fluoroadenine], in the series with L1210 cells, the “levels of F-ara-A triphosphate in leukemic cells versus F-ara-A itself” value was “higher levels”. In the series with L1210/0 Leukemia (setting [4]), the “% ILS” value is given as 177% and the Cures was 3/10. The “Median Lifespan” value in the series with L1210/0 Leukemia (Table II, 150 mg/kg/dose, IP, QD 1-9 days, untreated control 9) amounted to 25 days. For the same molecule, in the series with L1210/0 Leukemia (setting [5]), the Cures result is listed as “three” and the increase in lifespan came to 177%. In addition, in the series with L1210 Leukemia, the “lifespan and cures of mice implanted with leukemia L1210 cells” value is “good increases in lifespan and some cures”. The solubility result in series [1] was “water-soluble”. In series [2], the “conversion to the parent drug in vivo” value is reported as “converted to the parent drug in vivo”.

Turning to `Nc1nc(F)nc2c1ncn2[C@@H]1O[C@H](COP(=O)(O)O)[C@@H](O)[C@@H]1O` [F-ara-AMP, 9-β-D-arabinofuranosyl-2-fluoroadenine 5'-phosphate], the “levels of F-ara-A triphosphate in leukemic cells versus F-ara-A itself” value in the series with L1210 cells is given as “higher levels”. Also, the “lifespan and cures of mice implanted with leukemia L1210 cells” value in the series with L1210 Leukemia is “good increases in lifespan and some cures”. Also, in the series on L1210 Leukemia (setting [6]), the “% ILS” value was determined as 125%, the Cures is 3/10 and the Lifespan came out at 18 days. In addition, the solubility entry in series [1] was “water-soluble”. Besides, the “conversion to the parent drug in vivo” value in series [2] is recorded as “converted to the parent drug in vivo”.

`Nc1ncnc2c1ncn2[C@@H]1O[C@H](CO)[C@@H](O)[C@@H]1O` [ara-A, 9-β-D-arabinofuranosyl adenine, reference compound]: the effectiveness entry in the series with L1210 Leukemia (optimal schedule, every 3 hours for 24 hours) is recorded as “not very effective”.

Take `Nc1ncnc2c1ncn2[C@@H]1O[C@H](COP(=O)(O)O)[C@@H](O)[C@@H]1O` [Ara-AMP, 9-β-D-arabinofuranosyl adenine 5'-phosphate, reference compound]: in the series with L1210 Leukemia (setting [7]), the “% ILS” value turned out to be 62% and the Lifespan was 13 days.

In the case of `OC[C@H]1O[C@@H](n2cnc3c2NC=NC[C@H]3O)C[C@@H]1O` [2'-dCF], the toxicity entry in series [3] is on record as “clear but not completely defined toxicity”.
